From patent US7772197B2, “1,3,5-triazines for treatment of viral diseases” (1,3,5-Triazines for Treatment of Viral Diseases, priority 2002, dated 2010) come the findings set out here.

Like-named read-outs stand apart in the source and are kept apart here.

The test system of series [1] is hgprt gene in CHO (Chinese Hamster Ovary) cells. Kind of series: hgprt assay, mutagenesis of cellular DNA, 6-thioguanine selection. In kind it is cell-based. The note with it: 1 mM, data not shown. Here is the method: (Data not shown.) An hgprt assay was also performed to test mutagenesis of cellular DNA by DHAdC. The assay was performed on CHO (Chinese Hamster Ovary) cells and mutants were selected for resistance to 6-thioguanine (6-TG). EMS (ethyl methyl sulfonate), a known mutagen, was used as a positive control.

Another series has as its target T1, polymerase-α (Homo sapiens, UniProt P09884).
T1 sequence (P09884 1-1462): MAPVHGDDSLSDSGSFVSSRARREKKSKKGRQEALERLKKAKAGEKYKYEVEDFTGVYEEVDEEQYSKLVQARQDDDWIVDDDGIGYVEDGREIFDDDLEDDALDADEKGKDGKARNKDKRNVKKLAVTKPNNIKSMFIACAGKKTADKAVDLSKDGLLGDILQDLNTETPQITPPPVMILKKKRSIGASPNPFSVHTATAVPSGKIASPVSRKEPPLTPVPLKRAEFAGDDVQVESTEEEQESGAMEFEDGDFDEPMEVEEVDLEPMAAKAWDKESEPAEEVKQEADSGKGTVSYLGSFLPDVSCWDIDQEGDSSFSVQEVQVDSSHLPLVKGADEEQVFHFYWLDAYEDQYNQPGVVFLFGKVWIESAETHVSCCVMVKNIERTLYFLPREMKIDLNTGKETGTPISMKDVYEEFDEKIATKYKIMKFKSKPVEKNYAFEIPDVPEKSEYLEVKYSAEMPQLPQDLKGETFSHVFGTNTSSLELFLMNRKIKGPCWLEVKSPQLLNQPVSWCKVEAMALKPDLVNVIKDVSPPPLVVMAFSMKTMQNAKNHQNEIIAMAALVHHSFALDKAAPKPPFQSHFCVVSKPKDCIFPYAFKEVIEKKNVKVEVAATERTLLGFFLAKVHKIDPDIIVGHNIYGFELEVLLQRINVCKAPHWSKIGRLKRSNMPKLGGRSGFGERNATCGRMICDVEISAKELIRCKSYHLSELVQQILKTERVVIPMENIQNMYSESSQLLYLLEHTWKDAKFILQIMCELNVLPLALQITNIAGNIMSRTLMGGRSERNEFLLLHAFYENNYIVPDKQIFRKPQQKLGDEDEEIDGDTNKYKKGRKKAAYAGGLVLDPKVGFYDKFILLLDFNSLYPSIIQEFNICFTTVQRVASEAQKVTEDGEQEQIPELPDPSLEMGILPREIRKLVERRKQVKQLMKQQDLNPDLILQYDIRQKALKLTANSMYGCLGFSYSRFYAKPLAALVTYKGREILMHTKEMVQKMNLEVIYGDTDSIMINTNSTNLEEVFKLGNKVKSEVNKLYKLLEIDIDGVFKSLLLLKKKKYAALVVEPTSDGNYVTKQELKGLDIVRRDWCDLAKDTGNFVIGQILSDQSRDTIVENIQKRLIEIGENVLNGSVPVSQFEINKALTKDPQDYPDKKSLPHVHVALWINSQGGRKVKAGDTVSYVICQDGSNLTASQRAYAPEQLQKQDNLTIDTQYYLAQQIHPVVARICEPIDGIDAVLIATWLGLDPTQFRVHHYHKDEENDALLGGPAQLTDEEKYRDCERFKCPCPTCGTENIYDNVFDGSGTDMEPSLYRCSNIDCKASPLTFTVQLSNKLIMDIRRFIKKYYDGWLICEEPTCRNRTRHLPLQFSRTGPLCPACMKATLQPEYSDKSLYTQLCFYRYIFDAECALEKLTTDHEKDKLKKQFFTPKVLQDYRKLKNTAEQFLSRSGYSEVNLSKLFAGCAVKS
In words: Substrate for cellular polymerase. In kind it is biochemical. The note with it: data not shown.

The next series has as its system HIV-1 LAI. In words: Treatment of HIV-1-infected MT-2 cells with nucleoside analogues, p24 ELISA. In kind it is cell-based. Here is the method:
The strains of HIV-1 used for primary drug screening are HIV-1 LAI or the appropriate strain of NRTI resistant HIV for studies of cross-resistance. Virus was propagated on MT-2 cells at an multiplicity of infection (MOI) of 0.01 to generate virus stocks. Briefly, the MT-2 cells were suspended in RPMI 1640 media supplemented with 10% fetal bovine serum, streptomycin and penicillin (cRPMI) and grown in a 37° C. incubator containing 5% CO2. Serial dilution of the virus and infection of MT-2 cells were followed by an ELISA detecting the capsid protein of HIV-1 (p24) and used to determine the titer of the virus stocks (50% tissue culture infectious dose (TCID50)). The ELISA was performed according to the manufacturer's instructions. The MT-2 cells are also used for visualizing the cytopathic effects of HIV-1 growth (e.g. syncytia formation).
0.1 ml of a 3×10^5 cells/ml MT-2 cell suspension were seeded in 96-well plates at 3×10^4 cells/well. The compounds to be assayed were diluted in a separate 96-well at ten times (10×) the concentration needed for the screen. 22 μl of the 10× compounds was then added to the wells in triplicate except for six control wells, containing uninfected MT-2 cells alone (3 wells) and untreated HIV-infected MT-2 cells (3 wells). This was followed by the addition of HIV-1 at an MOI of 0.01, except for the three wells serving as the uninfected control. 0.1 ml of cRPMI was added to the uninfected well instead of virus. After the addition of virus, the 96-well plate was centrifuged at 1,200×g for two hours to enhance the adsorption of the virus by the MT-2 cells (see, e.g., O'Doherty, J. Virol. 74:10074-10080 (2000)). After the centrifugation step, the 96-well plate was then incubated in a 37° C. incubator containing 5% CO2 for three days. At the end of this time period the virus and cells were mixed by gentle pipetting followed by a 1 minute spin at 600×g to pellet the cells. The supernatant of each well was then serially diluted 1,000-fold into new 96-well plates to serve as inoculum for the next passage and assayed by ELISA for the amount of p24 produced. The next passage was performed as described above, except that the virus used to infect the cells was derived from the 1,000-fold dilution plate. To generate an EC50 value, half-log concentrations of mutagenic nucleoside or nucleotide analogue capable of eradicating virus in a single passage are tested as above to generate a dose-response curve.

Broadly, the EC50 is the midpoint of the concentration-response curve. Turning to `NC1=NC(=O)N([C@H]2C[C@H](O)[C@@H](CO)O2)CN1` [DHAdC, 1-(2-Deoxy-β-D-ribofuranosyl)-4-amino-1,2,5,6-tetrahydro-1,3,5-triazin-2-one], the “mutation frequency of cellular gene hgprt” value in series [1] is “did not increase above background”. On polymerase-α, the “substrate for polymerase-α” value is reported as “poor substrate”. Besides, the EC50 is approximately 0.01 µM with HIV-1 LAI (Human immunodeficiency virus 1, MT2, read-out: EC50 against HIV, against HIV, strain not stated, 'in the range of') and 3 µM with HIV-1 LAI (Human immunodeficiency virus 1, MT2, wild-type HIV strain LAI, MT-2 cells).
